Assay results: paper PMC3718762, “Differential Disruption of EWS-FLI1 Binding by DNA-Binding Agents” (PLoS ONE, 2013)
Counter-ions that a name gives are not always drawn. Like-named read-outs stand apart in the source and are kept apart here.

Assays:
p53 = molecular target: T1, p53 (Homo sapiens, UniProt P04637); experiment: AlphaScreen proximity assay (counterscreen), binding of recombinant p53 to cognate DNA oligo
T1 construct: made in house; host or cells: bacteria (pGex-6P-1-p53); plasmid was a gift from Dr. Guangchao Sui
T1 sequence (P04637 whole entry, species assumed): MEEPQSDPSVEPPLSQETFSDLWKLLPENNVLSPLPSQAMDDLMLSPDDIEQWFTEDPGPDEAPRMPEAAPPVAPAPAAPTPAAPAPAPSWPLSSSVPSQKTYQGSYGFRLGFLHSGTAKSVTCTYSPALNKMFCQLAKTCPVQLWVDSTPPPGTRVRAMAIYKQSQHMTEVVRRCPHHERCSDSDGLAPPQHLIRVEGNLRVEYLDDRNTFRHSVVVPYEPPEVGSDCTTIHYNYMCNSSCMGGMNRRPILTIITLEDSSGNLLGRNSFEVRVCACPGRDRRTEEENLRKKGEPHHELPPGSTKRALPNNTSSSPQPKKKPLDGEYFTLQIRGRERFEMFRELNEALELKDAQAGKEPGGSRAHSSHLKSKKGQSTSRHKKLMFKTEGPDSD
From the text: An AlphaScreen assay for binding of recombinant EWS-FLI1 to DNA was previously described. Briefly, recombinant EWS-FLI1 and p53 were synthesized in bacteria transformed with pGex-6P-1-EWS-FLI1 or pGex-6P-1-p53, and bound to AlphaScreen acceptor beads. A biotinylated oligonucleotide containing two copies of the EWS-FLI1 binding motif or p53 binding motifs was bound to AlphaScreen donor beads. For EWS-FLI1, the oligo sequence was: […]. The p53 binding oligo sequence was: […]. This assay was used to screen 5,200 compounds, as previously described. IC50 values were calculated with the GraphPad Prism software package.
We developed a homogeneous AlphaScreen assay to assess the binding of recombinant EWS-FLI1 to DNA [18]. A parallel assay assessing binding of p53 to DNA was used as a counterscreen. Briefly, in these proximity assays, recombinant GST-EWS-FLI1 or GST-p53 was bound to glutathione-conjugated AlphaScreen acceptor beads, and a synthetic biotinylated oligonucleotide (oligo) containing tandem EWS-FLI1 or p53 binding sites was bound to streptavidin-conjugated AlphaScreen donor beads. Binding of GST-EWS-FLI1 or GST-p53 to the cognate oligo allows singlet oxygen transfer from donor to acceptor beads when excited at 680 nm, with resulting light emission between 520–620 nm.

EWS-FLI1 = experiment: AlphaScreen proximity assay, binding of recombinant EWS-FLI1 to cognate DNA oligo; conditions: for IC50: read-out: IC50 EWS-FLI1, disruption of recombinant EWS-FLI1 binding to DNA; for Disruption of EWS-FLI1 binding compared with p53 binding in the parallel assays: EWS-FLI1 versus p53
NR0B1 promoter = experiment: NR0B1-Luc firefly luciferase reporter assay in A673 cells; type: cell-based, human; conditions: A673 cells, NR0B1-Luc versus UbC-RL
From the text: The NR0B1 promoter was amplified from human genomic DNA using the 5′ primer- […] and 3′ primer - […]. NR0B1 promoter amplicon was cloned into the NheI and HindIII sites in the pGL.3Basic vector. The 5′ primer-[…] was used to amplify a truncated NR0B1 promoter in which the entire EWS-FLI1 binding region (GGAA repeats) was deleted to construct pGL.3b-NR0B1del. All constructs were confirmed by sequencing. All other plasmids were previously described.
Ewing sarcoma A673 cells at 50% confluence in 100 mm dishes were transfected with both 5.8 µg of pGL.3b-NR0B1 and 0.2 µg of pGL.3b-Ubc-RL reporter plasmids as above. Eight hours post-transfection, cells were trypsinized and 600 ul (2×10^5) of cells were added to each well of 24 well plates. 5 µl of different concentration of compounds or DMSO control were added to each well. Each treatment was performed in triplicate. Cells were incubated for 16 hours, then cells were lysed in 100 µl of lysis buffer and 10 µl of cell lysate was used for the dual luciferase assay. Renilla luciferase activity was used as an internal control for normalization of nonspecific transcriptional inhibition or cytotoxic effects. Experiments were repeated three times. IC50 values were calculated using Prism (Graphpad).
To determine the effect of compounds on EWS-FLI1 activity in cells, we used a reporter assay comprised of the NR0B1 promoter, a prototypical EWS-FLI1-regulated gene, driving expression of firefly luciferase. Renilla luciferase driven by the Ubiquitin C promoter (UbC-RL) was used as an internal control. Confirming prior studies, the NR0B1 promoter was verified to be highly responsive to EWS-FLI1, whereas the UbC promoter activity was not subject to regulation by EWS-FLI1 (Figure S1).

[1] = test system: EWS-FLI1 downstream targets; set-up: method as in PMID 21403840, PMID 21653923; conditions: prior studies ref [11], [12]; cited from earlier work
Ewing sarcoma cells = test system: Ewing sarcoma cells; set-up: method as in PMID 21403840, PMID 21653923; conditions: prior studies ref [11], [12]; cited from earlier work
[2] = AlphaScreen, disruption of recombinant p53 binding to DNA, read-out: IC50 p53

IC50 (p53; [2]) [µM]	Compound	IC50 (EWS-FLI1) [µM]	also measured
	COc1cccc2c1C(=O)c1c(O)c3c(c(O)c1C2=O)C[C@@](O)(C(=O)CO)C[C@@H]3O[C@H]1C[C@H](N)[C@@H](O)[C@H](C)O1 [Epirubicin]	0.042	Separation of inhibition of the NR0B1 and UbC reporters (NR0B1 promoter): no separation; IC50 (p53): 0.389 µM
> 10	O=c1c2ccccc2[se]n1-c1ccccc1 [Ebselen]	0.631	Separation of inhibition of the NR0B1 and UbC reporters (NR0B1 promoter): modulated the NR0B1 and UbC reporters equally
	COc1cc2c(cc1O)CCN[C@]21CS[C@@H]2c3c(OC(C)=O)c(C)c4c(c3[C@H](COC1=O)N1[C@@H]2[C@H]2c3c(cc(C)c(OC)c3O)C[C@@H]([C@@H]1O)N2C)OCO4 [ET-743, trabectedin]		Expression of EWS-FLI1 downstream targets [1]: reduced; Growth of Ewing sarcoma cells (Ewing sarcoma cells): inhibited
	COc1cccc2c1C(=O)c1c(O)c3c(c(O)c1C2=O)C[C@@](O)(C(=O)CO)C[C@@H]3O[C@H]1C[C@H](N)[C@H](O)[C@H](C)O1 [Doxorubincin]	0.344	Separation of inhibition of the NR0B1 and UbC reporters (NR0B1 promoter): no separation; IC50 (p53): 1.22 µM; Disruption of EWS-FLI1 binding compared with p53 binding in the parallel assays (EWS-FLI1): disrupt both EWS-FLI1 and p53 binding similarly
1.2	CC(C)[C@H](CO)Nc1nc(Nc2cc(N)cc(Cl)c2)c2ncn(C(C)C)c2n1 [Aminopurvalanol A]	1.83	
6.06	CCN(CC)CCCC(C)Nc1c2ccc(Cl)cc2nc2ccc(OC)cc12 (stereo not drawn) [Quinacrine HCl]	7.03	
	mithramycin		Expression of EWS-FLI1 downstream targets [1]: reduced; Growth of Ewing sarcoma cells (Ewing sarcoma cells): inhibited
	CC(C)=CC[C@@H](O)C1=CC(=O)c2c(O)ccc(O)c2C1=O [Shikonin]	0.6	IC50 (p53): 0.633 µM
> 10	CCOc1ccc(C=C2SC(=O)N(CCN)C2=O)cc1.Cl [Erk inihibitor]	3.35	Separation of inhibition of the NR0B1 and UbC reporters (NR0B1 promoter): modulated the NR0B1 and UbC reporters equally
	COc1cccc2c1C(=O)c1c(O)c3c(c(O)c1C2=O)C[C@@](O)(C(C)=O)C[C@@H]3O[C@H]1C[C@H](N)[C@H](O)[C@H](C)O1 [Daunorubicin]	4.48	Disruption of EWS-FLI1 binding compared with p53 binding in the parallel assays (EWS-FLI1): disrupt both EWS-FLI1 and p53 binding similarly
	Verteporfin	0.342	
	c1nc2nc(Nc3ccc(N4CCOCC4)cc3)nc(NC3CCCCC3)c2[nH]1 [Reversine]	2.42	IC50 (p53): 2.71 µM
0.203	CC(C)/N=c1\cc2n(-c3ccc(Cl)cc3)c3ccccc3nc-2cc1Nc1ccc(Cl)cc1 [Clofazimine]	0.202	
5.29	CCCCc1oc2ccccc2c1C(=O)c1cc(I)c(OCCN(CC)CC)c(I)c1 [Amiodarone HCl]		
2.81	Cn1c2ccccc2c2c3c(c4c5ccccc5n(CCC#N)c4c21)CNC3=O [Go 6976]		
	COc1ccc2[nH]c([S+]([O-])Cc3ncc(C)c(OC)c3C)nc2c1 (stereo not drawn) [Omeprazole]	7.33	

Compound	IC50 (p53; [2]) [µM]	IC50 (EWS-FLI1) [µM]	also measured
CC(=O)[O][Hg][c]1ccccc1 [Phenylmericuric Acetate]	0.025	0.016	
N.N.[Cl][Pt][Cl] [Cisplatin]	8.87	5.39	Disruption of EWS-FLI1 binding compared with p53 binding in the parallel assays (EWS-FLI1): disrupt both EWS-FLI1 and p53 binding similarly
CCOc1ccc2c(c1)C(C)=CC(C)(C)N2 [Ethoxyqiun]	0.484	0.464	
CN(C)c1ccc(/C=C2\C(=O)Nc3ccccc32)cc1 [DMBI]	3.78	3.37	
